According to patent US11331351B2, “Bacillus strains improving health and performance of production animals” (priority 2015, dated 2022):
Values after ≈ are worked out from the molar mass of the structure shown. Like-named read-outs stand apart in the source and are kept apart here. Bridge positions count the residues as written; N and C are the ends. Square brackets hold non-standard residues; d marks the D form. Peptide text beside a SMILES is read from it. * marks the point of attachment. Ileψ(thiazoline)Cys = CC[C@H](C)[C@H](N)C1=N[C@H](C(=O)*)CS1; dOrn = NCCC[C@@H](N)C(=O)O

What was measured:
B. subtilis DSM 29871 [1] = assay type: cell-based, Bacillus subtilis; details: for MIC: Bacillus subtilis
[2] = test system: B. amyloliquefaciens DSM 29869; assay type: cell-based, Bacillus amyloliquefaciens; details: for MIC: Bacillus amyloliquefaciens
B. subtilis DSM 29870 [3] = assay type: cell-based, Bacillus subtilis; details: for MIC: Bacillus subtilis
B. subtilis DSM 29871 [4] = details: EFSA Journal 2012; 10(6): 2740; cited from earlier work
[5] = test system: B. amyloliquefaciens DSM 29869; details: EFSA Journal 2012; 10(6): 2740; cited from earlier work
B. subtilis DSM 29870 [6] = details: EFSA Journal 2012; 10(6): 2740; cited from earlier work
Clostridium perfringens = assay type: in vivo, broiler chickens Cobb×Cobb; details: bacitracin 50 ppm; for Lesion score (d 21): 0 to 3 score; for BWG (g/bird) (d 1-d 28) / Dead birds with necrotic enteritis lesions (%) (d 1-d 28) / FCR (d 1-d 28) / Total mortality (%) (d 1-d 28): infected
[7] = DSM29871, biological replicate MIC 1, 37° C., 20-24 h, read-out: MIC 1
[8] = DSM29871, biological replicate MIC 2, 37° C., 20-24 h, read-out: MIC 2
[9] = DSM29871, biological replicate MIC 3, 37° C., 20-24 h, read-out: MIC 3
[10] = DSM29869, biological replicate MIC 1, 37° C., 20-24 h, read-out: MIC 1
[11] = DSM29869, biological replicate MIC 2, 37° C., 20-24 h, read-out: MIC 2
[12] = DSM29869, biological replicate MIC 3, 37° C., 20-24 h, read-out: MIC 3
[13] = DSM29870, biological replicate MIC 1, 37° C., 20-24 h, read-out: MIC 1
[14] = DSM29870, biological replicate MIC 2, 37° C., 20-24 h, read-out: MIC 2
[15] = DSM29870, biological replicate MIC 3, 37° C., 20-24 h, read-out: MIC 3
[16] = biological replicate MIC 1, 37° C., 20-24 h
[17] = Trial 1, DSM 29870 1.10^9 CFU/kg of feed
[18] = Trial 2, DSM 29870 5.10^8 CFU/kg of feed
[19] = Trial 3, DSM 29870 5.10^8 CFU/kg of feed
[20] = biological replicate MIC 2, 37° C., 20-24 h
[21] = biological replicate MIC 3, 37° C., 20-24 h

Compound	MIC (B. subtilis DSM 29871 [1]; [7]) [µg/mL]	MIC (B. subtilis DSM 29871 [1]; [8]) [µg/mL]	MIC (B. subtilis DSM 29871 [1]; [9]) [µg/mL]	MIC [2, 10] [µg/mL]	MIC [2, 11] [µg/mL]	MIC [2, 12] [µg/mL]	MIC (B. subtilis DSM 29870 [3]; [13]) [µg/mL]	MIC (B. subtilis DSM 29870 [3]; [14]) [µg/mL]	MIC (B. subtilis DSM 29870 [3]; [15]) [µg/mL]	EFSA breakpoints (B. subtilis DSM 29871 [4]) [µg/mL]	EFSA breakpoints [5] [µg/mL]	EFSA breakpoints (B. subtilis DSM 29870 [6]) [µg/mL]	further results
O=C(N[C@H](CO)[C@H](O)c1ccc([N+](=O)[O-])cc1)C(Cl)Cl [Chloramphenicol]	8 (≈ 24.8 µM)	4 (≈ 12.4 µM)	8 (≈ 24.8 µM)	4 (≈ 12.4 µM)	4 (≈ 12.4 µM)	4 (≈ 12.4 µM)	4 (≈ 12.4 µM)	8 (≈ 24.8 µM)	4 (≈ 12.4 µM)	8	8	8	
CCC[C@@H]1C[C@@H](C(=O)N[C@@H]([C@H]2O[C@H](SC)[C@H](O)[C@@H](O)[C@H]2O)[C@H](C)Cl)N(C)C1 [Clindamycin]	0.5 (≈ 1.18 µM)	0.25 (≈ 0.588 µM)	0.5 (≈ 1.18 µM)	1 (≈ 2.35 µM)	0.5 (≈ 1.18 µM)	1 (≈ 2.35 µM)	0.25 (≈ 0.588 µM)	0.25 (≈ 0.588 µM)	0.25 (≈ 0.588 µM)				
CC[C@H]1OC(=O)[C@H](C)[C@@H](O[C@H]2C[C@@](C)(OC)[C@@H](O)[C@H](C)O2)[C@H](C)[C@@H](O[C@@H]2O[C@H](C)C[C@H](N(C)C)[C@H]2O)[C@](C)(O)C[C@@H](C)C(=O)[C@H](C)[C@@H](O)[C@]1(C)O [Erythromycin]	0.125 (≈ 0.17 µM)	0.125 (≈ 0.17 µM)	0.125 (≈ 0.17 µM)	0.5 (≈ 0.681 µM)	0.06 (≈ 0.0818 µM)	0.06 (≈ 0.0818 µM)	0.125 (≈ 0.17 µM)	0.125 (≈ 0.17 µM)	0.125 (≈ 0.17 µM)	4	4	4	
NC[C@H]1O[C@H](O[C@H]2[C@H](O)[C@@H](O[C@H]3O[C@H](CO)[C@@H](O)[C@H](N)[C@H]3O)[C@H](N)C[C@@H]2N)[C@H](O)[C@@H](O)[C@@H]1O [Kanamycin]	2 (≈ 4.13 µM)	1 (≈ 2.06 µM)	2 (≈ 4.13 µM)	2 (≈ 4.13 µM)	0.5 (≈ 1.03 µM)	0.5 (≈ 1.03 µM)	2 (≈ 4.13 µM)	1 (≈ 2.06 µM)	2 (≈ 4.13 µM)				
[H]/N=C(/N)N[C@H]1[C@H](O)[C@@H](O)[C@H](O[C@@H]2O[C@@H](C)[C@](O)(C=O)[C@H]2O[C@@H]2O[C@@H](CO)[C@H](O)[C@@H](O)[C@@H]2NC)[C@@H](N/C(N)=N\[H])[C@@H]1O [Streptomycin]	32 (≈ 55 µM)	16 (≈ 27.5 µM)	32 (≈ 55 µM)	2 (≈ 3.44 µM)	4 (≈ 6.88 µM)	4 (≈ 6.88 µM)	4 (≈ 6.88 µM)	4 (≈ 6.88 µM)	8 (≈ 13.8 µM)	8	8	8	
CN(C)[C@@H]1C(O)=C(C(N)=O)C(=O)[C@@]2(O)C(O)=C3C(=O)c4c(O)cccc4[C@@](C)(O)[C@H]3C[C@@H]12 [Tetracycline]	2 (≈ 4.5 µM)	4 (≈ 9 µM)	4 (≈ 9 µM)	16 (≈ 36 µM)	8 (≈ 18 µM)	8 (≈ 18 µM)	0.25 (≈ 0.563 µM)	0.25 (≈ 0.563 µM)	0.25 (≈ 0.563 µM)				MIC 1 [2, 16]: 16 µg/mL (≈ 36 µM)
CN[C@H](CC(C)C)C(=O)N[C@H]1C(=O)N[C@@H](CC(N)=O)C(=O)N[C@H]2C(=O)N[C@H]3C(=O)N[C@H](C(=O)N[C@H](C(=O)O)c4cc(O)cc(O)c4-c4cc3ccc4O)[C@H](O)c3ccc(c(Cl)c3)Oc3cc2cc(c3O[C@@H]2O[C@H](CO)[C@@H](O)[C@H](O)[C@H]2O[C@H]2C[C@](C)(N)[C@H](O)[C@H](C)O2)Oc2ccc(cc2Cl)[C@H]1O [Vancomycin]	0.25 (≈ 0.173 µM)			0.25 (≈ 0.173 µM)		0.25 (≈ 0.173 µM)	0.25 (≈ 0.173 µM)			4	4	4	MIC (B. subtilis DSM 29871 [1]; DSM29871, read-out: MIC 2): 0.25 µg/mL (≈ 0.173 µM); MIC (B. subtilis DSM 29871 [1]; DSM29871, read-out: MIC 3): 0.25 µg/mL (≈ 0.173 µM); MIC ([2]; DSM29869, read-out: MIC 2): 0.25 µg/mL (≈ 0.173 µM); MIC (B. subtilis DSM 29870 [3]; DSM29870, read-out: MIC 2): 0.25 µg/mL (≈ 0.173 µM); MIC (B. subtilis DSM 29870 [3]; DSM29870, read-out: MIC 3): 0.25 µg/mL (≈ 0.173 µM)
CC[C@H](C)[C@H](N)C1=N[C@H](C(=O)N[C@@H](CC(C)C)C(=O)N[C@H](CCC(=O)O)C(=O)N[C@H](C(=O)N[C@H]2CCCCNC(=O)[C@H](CC(N)=O)NC(=O)[C@@H](CC(=O)O)NC(=O)[C@H](Cc3cnc[nH]3)NC(=O)[C@@H](Cc3ccccc3)NC(=O)[C@H]([C@@H](C)CC)NC(=O)[C@@H](CCCN)NC2=O)[C@@H](C)CC)CS1 [bacitracin] ({Ileψ(thiazoline)Cys}-L[dE]IK[dOrn]I[dF]H[dD]N; lactam 4-C)													Lesion score (d 21) (Clostridium perfringens; [17]): 0.2a; BWG (g/bird) (d 1-d 28) (Clostridium perfringens; [17]): 633ab g/bird; Dead birds with necrotic enteritis lesions (%) (d 1-d 28) (Clostridium perfringens; [17]): 1.6b %; FCR (d 1-d 28) (Clostridium perfringens; [17]): 1.813bc; Total mortality (%) (d 1-d 28) (Clostridium perfringens; [17]): 5.0b %; Lesion score (d 21) (Clostridium perfringens; [18]): 0.6b; BWG (g/bird) (d 1-d 28) (Clostridium perfringens; [18]): 665ab g/bird; Dead birds with necrotic enteritis lesions (%) (d 1-d 28) (Clostridium perfringens; [18]): 6.3c %; FCR (d 1-d 28) (Clostridium perfringens; [18]): 1.759b; Total mortality (%) (d 1-d 28) (Clostridium perfringens; [18]): 12.5bc %; Lesion score (d 21) (Clostridium perfringens; [19]): 0.6a; BWG (g/bird) (d 1-d 28) (Clostridium perfringens; [19]): 645a g/bird; Dead birds with necrotic enteritis lesions (%) (d 1-d 28) (Clostridium perfringens; [19]): 4.7bc %; FCR (d 1-d 28) (Clostridium perfringens; [19]): 1.786bc; Total mortality (%) (d 1-d 28) (Clostridium perfringens; [19]): 15.0a %
Gentamycin										4	4	4	MIC 1 (B. subtilis DSM 29871 [1]; [16]): 0.25 µg/mL; MIC 2 (B. subtilis DSM 29871 [1]; [20]): 0.125 µg/mL; MIC 3 (B. subtilis DSM 29871 [1]; [21]): 0.25 µg/mL; MIC 1 [2, 16]: 0.5 µg/mL; MIC 2 [2, 20]: 0.125 µg/mL; MIC 3 [2, 21]: 0.06 µg/mL; MIC 1 (B. subtilis DSM 29870 [3]; [16]): 0.25 µg/mL; MIC 2 (B. subtilis DSM 29870 [3]; [20]): 0.125 µg/mL; MIC 3 (B. subtilis DSM 29870 [3]; [21]): 0.25 µg/mL
